# Laboratory results taken from US20080070939A1, “LOCAL […] COMPOSITIONS CONTAINING DEXTROROTATORY MORPHINAN DERIVATIVES OR PHARMACEUTICALLY ACCEPTABLE SALTS THEREOF” (CHI MEI FOUNDATION HOSPITAL, priority 2006, published 2008).
# Columns and labels:
# Male Sprague-Dawley rats [1] = test: Spinal anesthetic effect (spinal blockade) after intrathecal injection in rats; type: in vivo; design: AUC of time-% PE curve, spinal blockade of motor function / AUC of time-% PE curve, spinal blockade of proprioception / AUC of time-% PE curve, spinal blockade of nociceptive reaction: unit not given beside the values
# Procedure: (§1) Male Sprague-Dawley rats (weighing about 300 to 350 g); for each dose of each drug, n=6.
# In brief, for preparation, the hairs on the back of each rat were shaved, and the shaved back was sterilized with iodine.
# After three minutes, 50 μL of each of the tested drugs was injected via a 27-gauge needle attached to a 100-μL syringe (Hamilton, Reno, Nev.) into the intrathecal space between the fourth and fifth lumbar vertebrae. The development of spinal blockade was observed from the paralysis of the hind limbs of the rats.
# The magnitude of nerve block (including blocking of motor function, proprioception, and nociceptive reaction) was expressed as the percentage of possible effect (hereinafter referred to as % PE), and the maximal value of % PE was expressed as the percentage of maximal possible effect (hereinafter referred to as % MPE).
# Motor function was evaluated by measuring the extensor postural thrust of the right hind limbs of the rats using a digital platform balance (Mettler Toledo, Switzerland, model PB1502-S). To test the extensor postural thrust, the rat was held upright with the hind limb extended, so that the body weight of the rat was supported by the distal metatarsus and toes. The extensor postural thrust could be measured as the force of the right hind limb of the rat thrusting the platform balance.
# A reduction in the force, resulting in extensor muscle tone, was considered as a motor deficit. A force less than 20 g (i.e., a weight of the “flaccid limb”) was considered absence of an extensor postural thrust or 100% motor block or 100% MPE.
# Proprioception was evaluated based on resting posture and postural reactions (including tactile placing and hopping). First, the front half of the rat body and one of the hind limbs were lifted off the ground at the same time so that the rat was standing on one hind limb. Then, the rat was moved laterally, which normally evoked a prompt hopping response of the weight-bearing hind limb of the rat in the direction of movement so as to avoid falling. A predominantly proprioceptive block caused a delayed hopping followed by greater lateral hops. […] Functional deficits were classified into four grades: 3 (normal or 0% MPE), 2 (slightly impaired), 1 (severely impaired), and 0 (completely impaired or 100% MPE).
# Nociceptive reaction was evaluated by the withdrawal reflex or vocalization elicited by the pinch of a skin fold over the back at 1 cm near the proximal part of the tail, the lateral metatarsus of the bilateral hind limbs, and the dorsal part of the mid-tail. At each testing time, only one pinch was given to each of the abovementioned four testing sites, and the time interval between stimulations at different sites was around 2 seconds. Nociceptive reactions were classified into five grades: 4 (normal or 0% MPE), 3 (25% MPE), 2 (50% MPE), 1 (75% MPE), and 0 (absent or 100% MPE).
# The potency of each drug on spinal blockades was compared using ED50.
# Duration was defined as the interval from injection of the tested drugs to complete recovery. The ED25, ED50 and ED75 obtained according to the SAS NLIN analysis in the preceding section “C. Potency evaluation” were used in this experiment.
# Regarding the method of evaluating the effect of co-administration, dextromethorphan hydrobromide monohydrate was used as an example.
# After the tests, the time of measurement of each drug and its corresponding % PE were plotted to obtain the time-% PE curves of each drug. The area under the curve (AUC) of time-% PE was calculated using the trapezoidal rule, and was used to evaluate the effect of the co-administration of the drugs.
# Statistical software, SPSS for Windows® (version 10.0.7) was used. Data were represented as mean±SEM.
# rats = test: Systemic safety indices: mortality 24 hours after intraperitoneal injection in rats; conditions: intraperitoneal injection, rats, mortality after 24 hours
# Procedure: Essentially, each drug was injected intraperitoneally into the rats (n=8). The number of dead rats was observed after 24 hours, and the rate of mortality (%) was calculated. Thereafter, the doses of each drug and the relative mortality were plotted to obtain dose-mortality curves of the drugs. […] The safety index (LD50/ED50) of each drug was calculated using the LD50 thus obtained and the ED50 obtained in the section “C. Potency evaluation” of this example.
# sciatic nerve = test: Sciatic nerve blockade after injection at the sciatic nerve notch in rats; type: in vivo; design: AUC of time-% PE curve, sciatic nerve blockade of motor function / AUC of time-% PE curve, sciatic nerve blockade of proprioception / AUC of time-% PE curve, sciatic nerve blockade of nociceptive reaction: unit not given beside the values; conditions: rats
# Procedure: as §1
# In brief, the rats were slightly anesthetized by inhalation of a low concentration of sevoflurane. Then, 200 μL of tested drugs were injected at the sciatic nerve notch at the left hind limb of the rat using a 27-gauge needle connected to a tuberculin syringe (Becton Dickinson, USA, model BND309623-BX). Thereafter, development of sciatic nerve blockade was observed from the paralysis of the left hind limb of the rat. The right hind limb served as a control during the subsequent functional assay
# For proprioception, the front half of the rat body and the right hind limb were off the ground at the same time so that the rat was standing on the left hind limb during the measurement.
# The differences resided in that: The sciatic nerve notch injections of ED25, ED50 and ED75 were conducted based on the method described in the preceding section “A. Drug injection” of this example. Evaluations of motor function, proprioception and nociceptive reaction were conducted based on the method described in section “B. Neurobehavioral evaluations” of this example.
# The differences resided in that: Before the statistical analysis, Shapiro-Wilk test was used to evaluate whether the data were, theoretically, normally distributed.
# Male Sprague-Dawley rats [2] = test: Infiltrative cutaneous anesthesia (inhibition of cutaneous trunci muscle reflex, CTMR) after subcutaneous injection in rats; type: in vivo
# Procedure: Male Sprague-Dawley rats (weighing about 200 to 250 g); for each dose of each drug, n=8.
# In brief, hairs on the dorsal surface (about 10×10 cm^2) of the thoracolumbar region of the rat were shaved, and the shaved surface was sterilized with iodine for preparation. To reduce the number of animals used, the back of the rat was further divided into left and right parts. One drug was injected first at the right part. After a washout period of one week, another drug was injected at the left part.
# 0.6 mL of drug was injected subcutaneously under the dorsal surface of the thoracolumbar region of the rat using a 30-gauge needle attached to a syringe (Becton Drive, Franklin Lakes, USA). The subcutaneous injection would result in a circular elevation (i.e., a wheal) of the skin, about 2 cm in diameter. The elevation was marked with ink within 1 minute after injection.
# CTMR refers to the reflex movement of the skin of the back caused by twitching of the lateral thoracispinal muscle in response to local dorsal cutaneous stimulation. Essentially, a von Frey filament (No.15; Somedic Sales AB, Sweden) to which a cut end of an 18-gauge needle was affixed was used to produce a standard nociceptive stimulus (strength: 19 g). Six pinpricks (at a frequency of 0.5-1 Hz) were applied to a single marked wheal during each test. […] For example, absence of any response to all of the 6 pinpricks was defined as a complete nociceptive block (i.e., 100% MPE).
# The difference resided in that subcutaneous injections of ED25, ED50 and ED75 of the drugs were performed based on the method described in the section “A. Drug injection” of this example, and evaluation of the infiltrative cutaneous anesthetic effect was performed based on the method described in the section “B. Neurobehavioral evaluation” of this example.
# [3] = intrathecal, rats, 2 ED50 when administered independently, ED50 of each drug when co-administered, mean ± SEM
# [4] = spinal blockade, mean of motor function, proprioception and nociceptive reaction, intrathecal, rats
# [5] = 2ED50 when administered independently, ED50 of each drug when co-administered, mean ± SEM
# [6] = infiltrative cutaneous anesthesia, rats, 2ED50 when administered independently, ED50 for co-administration, mean ± SEM
# [7] = infiltrative cutaneous anesthesia, subcutaneous injection, rats
# [8] = subcutaneous dose of ED75, rats, mean±SEM
substance,measurement,setting,value
Dextrorphan tartrate,"% MPE of spinal blockades of motor function, proprioception and nociceptive reaction (range over the three functions)","Male Sprague-Dawley rats [1]; intrathecal dose of ED75, rats",62-77 % MPE
same,"duration of spinal blockades of motor function, proprioception and nociceptive reaction (range over the three functions)","Male Sprague-Dawley rats [1]; intrathecal dose of ED75, rats",30 to 65 min
same,effect of co-administration with bupivacaine hydrochloride on spinal blockade,"Male Sprague-Dawley rats [1]; intrathecal, rats, ED50 of each drug",synergistic effect
same,"AUC of time-% PE curve, spinal blockade of motor function",Male Sprague-Dawley rats [1]; [3],1447 ± 163
same,"AUC of time-% PE curve, spinal blockade of nociceptive reaction",Male Sprague-Dawley rats [1]; [3],4332 ± 382
same,Motor function ED50 (95% CI),"Male Sprague-Dawley rats [1]; spinal blockade of motor function, intrathecal injection, rats",0.40 (0.39–0.42) mg
same,Nociceptive reaction ED50 (95% CI),"Male Sprague-Dawley rats [1]; spinal blockade of nociceptive reaction, intrathecal injection, rats",0.28 (0.26–0.30) mg
same,Proprioception ED50 (95% CI),"Male Sprague-Dawley rats [1]; spinal blockade of proprioception, intrathecal injection, rats",0.32 (0.30–0.35) mg
same,Mean value ED25,Male Sprague-Dawley rats [1]; [4],0.25 mg
same,Mean value ED50,Male Sprague-Dawley rats [1]; [4],0.33 mg
same,Mean value ED75,Male Sprague-Dawley rats [1]; [4],0.45 mg
same,LD50 (95% CI),rats,307 (257–369) mg/kg
same,effect of co-administration with lidocaine hydrochloride on sciatic nerve blockades,sciatic nerve; ED50 of each drug,additive effect
same,"AUC of time-% PE curve, sciatic nerve blockade of motor function",sciatic nerve; [5],7077 ± 429
same,"AUC of time-% PE curve, sciatic nerve blockade of nociceptive reaction",sciatic nerve; [5],8786 ± 915
same,"AUC of time-% PE curve, sciatic nerve blockade of proprioception",sciatic nerve; [5],7357 ± 558
same,duration of sciatic nerve blockade compared with lidocaine hydrochloride,"sciatic nerve; same effective doses (ED25, ED50 or ED75)",longer reaction duration
same,Motor function ED50 (95% CI),sciatic nerve; sciatic nerve blockade of motor function,14.66 (13.78–15.58) mg/kg
same,Nociceptive reaction ED50 (95% CI),sciatic nerve; sciatic nerve blockade of nociceptive reaction,13.38 (12.37–14.47) mg/kg
same,Proprioception ED50 (95% CI),sciatic nerve; sciatic nerve blockade of proprioception,14.52 (13.40–15.73) mg/kg
same,Mean ED50,"sciatic nerve; sciatic nerve blockade, mean of motor function, proprioception and nociceptive reaction",14.19 mg/kg
same,% MPE,Male Sprague-Dawley rats [2]; [6],73 ± 11 % MPE
same,AUC (% min.),Male Sprague-Dawley rats [2]; [6],3200 ± 690 % min.
same,Duration,Male Sprague-Dawley rats [2]; [6],63 ± 7 min
same,ED25,Male Sprague-Dawley rats [2]; [7],4.03 mg/kg
same,ED50 (95% CI),Male Sprague-Dawley rats [2]; [7],5.66 (5.17–6.21) mg/kg
same,ED75,Male Sprague-Dawley rats [2]; [7],7.97 mg/kg
same,duration of cutaneous anesthesia compared with lidocaine hydrochloride,"Male Sprague-Dawley rats [2]; same effective doses (ED25, ED50 or ED75), rats",longer duration
same,% MPE of cutaneous nociceptive block,Male Sprague-Dawley rats [2]; [8],73±7 % MPE
same,duration of cutaneous nociceptive block,Male Sprague-Dawley rats [2]; [8],~48 ± 3 min
same,effect of co-administration with lidocaine hydrochloride on cutaneous nociceptive blockade,"Male Sprague-Dawley rats [2]; subcutaneous, rats, ED50 of each drug",additive effect
